{"source": "ChEMBL document CHEMBL4808201", "about": "“Novel triazole-sulfonamide bearing pyrimidine moieties with carbonic anhydrase inhibitory action: Design, synthesis, computational and enzyme inhibition studies” (Bioorg Med Chem Lett, 2021)", "data": [{"biological_target": "Carbonic anhydrase 9 (Homo sapiens, UniProt Q16790)", "test": "Inhibition of human CA9 measured by stopped flow CO2 hydrase assay", "units": {"Ki": "µM"}, "values": [{"smiles": "Cc1cc(OCc2cn(-c3ccc(S(N)(=O)=O)cc3)nn2)nc(N2CCN(Cc3ccccc3)CC2)n1", "Ki": 0.0411}, {"smiles": "CCN1CCN(c2nccc(OCc3cn(-c4ccc(S(N)(=O)=O)cc4)nn3)n2)CC1", "Ki": 0.0227}, {"smiles": "N#Cc1cccnc1-c1nccc(OCc2cn(-c3ccc(S(N)(=O)=O)cc3)nn2)n1", "Ki": 0.155}, {"smiles": "Cc1cc(OCc2cn(-c3ccc(S(N)(=O)=O)cc3)nn2)nc(-c2ncccc2C#N)n1", "Ki": 0.032}, {"smiles": "Cc1cc(OCc2cn(-c3ccc(S(N)(=O)=O)cc3)nn2)nc(N2CCN(c3ccccn3)CC2)n1", "Ki": 0.0091}, {"smiles": "COc1ccccc1N1CCN(c2nccc(OCc3cn(-c4ccc(S(N)(=O)=O)cc4)nn3)n2)CC1", "Ki": 0.0447}, {"smiles": "CCOC(=O)N1CCN(c2nc(C)cc(OCc3cn(-c4ccc(S(N)(=O)=O)cc4)nn3)n2)CC1", "Ki": 0.0334}, {"smiles": "CCOC(=O)N1CCN(c2nccc(OCc3cn(-c4ccc(S(N)(=O)=O)cc4)nn3)n2)CC1", "Ki": 0.0016}, {"smiles": "NS(=O)(=O)c1ccc(-n2cc(COc3ccnc(N4CCN(c5ccccn5)CC4)n3)nn2)cc1", "Ki": 0.0168}, {"smiles": "COc1ccccc1N1CCN(c2nc(C)cc(OCc3cn(-c4ccc(S(N)(=O)=O)cc4)nn3)n2)CC1", "Ki": 0.0363}, {"smiles": "COc1ccc(-c2nc(C)cc(OCc3cn(-c4ccc(S(N)(=O)=O)cc4)nn3)n2)cc1", "Ki": 0.0297}, {"smiles": "CN1CCN(c2nccc(OCc3cn(-c4ccc(S(N)(=O)=O)cc4)nn3)n2)CC1", "Ki": 0.0304}, {"smiles": "NS(=O)(=O)c1ccc(-n2cc(COc3ccnc(N4CCN(Cc5ccccc5)CC4)n3)nn2)cc1", "Ki": 0.0391}, {"smiles": "Cc1cc(OCc2cn(-c3ccc(S(N)(=O)=O)cc3)nn2)nc(N2CCN(C(c3ccccc3)c3ccccc3)CC2)n1", "Ki": 0.0214}, {"smiles": "NS(=O)(=O)c1ccc(-n2cc(COc3ccnc(N4CCN(c5ccc(F)cc5)CC4)n3)nn2)cc1", "Ki": 0.0258}, {"smiles": "CCN1CCN(c2nc(C)cc(OCc3cn(-c4ccc(S(N)(=O)=O)cc4)nn3)n2)CC1", "Ki": 0.0161}, {"smiles": "NS(=O)(=O)c1ccc(-n2cc(COc3ccnc(N4CCOCC4)n3)nn2)cc1", "Ki": 0.0425}, {"smiles": "NS(=O)(=O)c1ccc(-n2cc(COc3ccnc(N4CCN(Cc5ccc(Cl)cc5)CC4)n3)nn2)cc1", "Ki": 0.0322}, {"smiles": "Cc1cc(OCc2cn(-c3ccc(S(N)(=O)=O)cc3)nn2)nc(N2CCCCC2)n1", "Ki": 0.0358}, {"smiles": "Cc1cc(OCc2cn(-c3ccc(S(N)(=O)=O)cc3)nn2)nc(N2CCN(c3ccccc3)CC2)n1", "Ki": 0.0328}, {"smiles": "NS(=O)(=O)c1ccc(-n2cc(COc3ccnc(N4CCCCC4)n3)nn2)cc1", "Ki": 0.0413}, {"smiles": "Cc1cc(OCc2cn(-c3ccc(S(N)(=O)=O)cc3)nn2)nc(N2CCOCC2)n1", "Ki": 0.0302}, {"smiles": "NS(=O)(=O)c1ccc(-n2cc(COc3ccnc(N4CCN(c5ccccc5)CC4)n3)nn2)cc1", "Ki": 0.0263}, {"smiles": "Cc1cc(OCc2cn(-c3ccc(S(N)(=O)=O)cc3)nn2)nc(N2CCN(Cc3ccc(Cl)cc3)CC2)n1", "Ki": 0.0029}, {"smiles": "Cc1cc(OCc2cn(-c3ccc(S(N)(=O)=O)cc3)nn2)nc(N2CCN(C)CC2)n1", "Ki": 0.0241}, {"smiles": "COc1ccc(-c2nccc(OCc3cn(-c4ccc(S(N)(=O)=O)cc4)nn3)n2)cc1", "Ki": 0.0514}, {"smiles": "NS(=O)(=O)c1ccc(-n2cc(COc3ccnc(N4CCN(C(c5ccccc5)c5ccccc5)CC4)n3)nn2)cc1", "Ki": 0.192}, {"smiles": "Cc1cc(OCc2cn(-c3ccc(S(N)(=O)=O)cc3)nn2)nc(N2CCN(c3ccc(F)cc3)CC2)n1", "Ki": 0.466}]}]}
